Tested on: Staphylococcus aureus ATCC 29213
Assay: Time kill efficacy against Staphylococcus aureus ATCC 29213 (log drop after 30 seconds of exposure)
Type: cell-based
Description: Time kill efficacy experiments were performed against Staphylococcus aureus ATCC 29213 (S aureus). Plates with Tryptic Soy agar (TSA) were inoculated with cultures of S aureus and incubated at 30-35° C. for 24 hours. Bacterial cultures were harvested and sample suspensions were adjusted to contain approximately […] colony-forming units (CFU) per milliliter. […] After 30 seconds of exposure, 1 mL of the test suspension was removed and added to 9.0 ml of Dey-Engley neutralizer. One hundred μL of this neutralized suspension was plated in triplicates on TSA plates using an automated spiral plating instrument (Eddyjet 2, Neutec group Inc, New York, USA), with 7 log serial dilution mode. All bacterial plates were incubated at 30-35° C. for 2 days. The log drop values are determined as the difference between the logged CFU in the plates with and without the test article.

In the case of sodium chlorite, the “Δ log reduction in the presence of 0.5% Brij 35 compared to alone” value (0.5% Brij 35 added to 5% povidone-iodine or to 8000 ppm sodium chlorite activated at pH 5, FIGS. 5A-5B) is reported as 1.6, the “Δ log reduction in the presence of 0.5% Pluronic F-127 compared to alone” value (0.5% Pluronic F-127 added to 5% povidone-iodine or to 8000 ppm sodium chlorite activated at pH 5, FIGS. 5A-5B) is reported as 1.46 and the “Δ log reduction in the presence of 0.5% polysorbate 80 compared to alone” value (0.5% polysorbate 80 added to 5% povidone-iodine or to 8000 ppm sodium chlorite activated at pH 5, FIGS. 5A-5B) is reported as 2.9. The “kill efficacy compared to sodium chlorite-only formulations and 5% povidone-iodine” value (800 ppm-8000 ppm sodium chlorite, pH 5 buffer, with 0.5% PS80, FIG. 2) was “more efficacious than sodium chlorite-only formulations”, the “kill efficacy compared to 5% povidone-iodine” value (4800 ppm and 6400 ppm sodium chlorite, pH 5 buffer, without PS80, FIG. 2) was “more efficacious than 5% povidone-iodine” and the “log reductions, alone” value (8000 ppm sodium chlorite activated at pH 5, alone, FIG. 5B) was 2.0-3.0. For the same substance, the “efficacy with 0.5% polysorbate 80 compared to formulations containing 0.5% Brij 35 or 0.5% Pluronic F-127” value (8000 ppm sodium chlorite activated at pH 5, FIG. 5B) was “significantly greater”, the log reduction (8000 ppm sodium chlorite activated with pH 2 buffer, 30 seconds exposure, FIG. 1, n=3) was 5.0 and the log reduction (8000 ppm sodium chlorite activated with pH 3 buffer, 30 seconds exposure, FIG. 1, n=3) was 5.0. The log reduction (8000 ppm sodium chlorite activated with pH 4 buffer, 30 seconds exposure, FIG. 1, n=3) was 5.0, the log reduction (8000 ppm sodium chlorite activated with pH 5 buffer, 30 seconds exposure, FIG. 1, n=3) was 2.4 and the “effect of 0.5% PS80 on log reduction” value (8000 ppm sodium chlorite pH4, 10% FBS, 0.5% PS80, FIG. 6) was “significantly increased the log reduction”. The “bactericidal effectiveness on addition of PS80 at lower concentrations” value (8000 ppm sodium chlorite pH 4, 10% FBS, PS80 0.015% or 0.025%, FIG. 6) was “not significantly affected”, the “effect of the presence of FBS on log reduction” value (8000 ppm sodium chlorite pH 4 and 0.5% PS80, with 10% FBS, FIG. 6) was “essentially unaffected” and the “effect of added Brij 35 on kill efficacy” value (8000 ppm sodium chlorite pH 5 plus Brij 35 0.05%-0.5%, FIG. 3) was “enhanced the efficacy”. For the same substance, the “effect of added Pluronic F-127 on kill efficacy” value (8000 ppm sodium chlorite pH 5 plus Pluronic F-127 at 0.25% and 0.5%, FIG. 4, N=1) was “appeared to augment the efficacy”, the log reduction (8000 ppm sodium chlorite, pH 4 buffer, absence of both 10% FBS and PS80, FIG. 6) was “about 5” and the log reduction (8000 ppm sodium chlorite, pH 4 buffer, in the presence of 10% FBS (organic load), no PS80, FIG. 6) was “about 2”.

Reference: patent US20260102425A1 (Allergan, Inc., priority 2018, published 2026)
